Test results as given in patent US5624923A, “Tricyclic diazepine vasopressin antagonists and oxytocin antagonists” (priority 1995, dated 1997).
Like-named read-outs stand apart in the source and are kept apart here.

Columns and labels:
[1] = target: T1, Human V2 Vasopressin Receptor (Homo sapiens, UniProt P30518); assay: Binding to Membranes of Mouse Fibroblast Cell Line (LV-2) Transfected with the cDNA Expressing the Human V2 Vasopressin Receptor
T1 construct: expressed in transfected cells; host or cells: mouse fibroblast cell line LV-2
Procedure: Binding to Membranes of Mouse Fibroblast Cell Line (LV-2) Transfected with the cDNA Expressing the Human V2 Vasopressin Receptor
Flasks of 175 ml capacity, containing attached cells grown to confluence, are cleared of culture medium by aspiration. The flasks containing the attached cells are rinsed with 2×5 ml of phosphate buffered saline (PBS) and the liquid aspirated off each time. Finally, 5 ml of an enzyme free dissociation Hank's based solution (Specialty Media, Inc., Lafayette, N.J.) is added and the flasks are left undisturbed for 2 min. The content of all flasks is. poured into a centrifuge tube and the cells pelleted at 300× g for 15 min. The Hank's based solution is aspirated off and the cells homogenized with a polytron at setting #6 for 10 sec in 10.0 mM Tris.HCl buffer, pH 7.4 containing 0.25M sucrose and 1.0 mM EDTA. The homogenate is centrifuged at 1500× g for 10 min to remove ghost membranes. The supernatant fluid is centrifuged at 100,000× g for 60 min. to pellet the receptor protein. Upon completion, the pellet is resuspended in a small volume of 50.0 mM Tris. HCl buffer, pH 7.4. The protein content is determined by the Lowry method and the receptor membranes are suspended in 50.0 mM Tris.HCl buffer containing 0.1 mM phenylmethylsulfonylfluoride (PMSF) and 0.2% bovine serum albumin (BSA) to give 2.5 mg receptor protein per ml of suspension.
Arginine^8, vasopressin (S.A. 75.0 Ci/mmole) at 0.8 nM and the reaction initiated by the addition of 80.0 μl of tissue membranes (200.0 μg tissue protein). The plates are left undisturbed on the bench top for 120 min to reach equilibrium. Non specific binding is assessed in the presence of 1.0 μM of unlabeled ligand, added in 20 μl volume. For test compounds, these are solubilized in 50% dimethylsulfoxide (DMSO) and added in 20.0 μl volume to a final incubation volume of 200 μl. Upon completion of binding, the content of each well is filtered off, using a Brandel® cell Harvester (Gaithersburg, Md.). The radioactivity trapped on the filter disk by the ligand-receptor complex is assessed by liquid scintillation counting in a Packard LS Counter, with an efficiency of 65% for tritium. The data are analyzed for IC50 values by the LUNDON-2 program for competition (LUNDON SOFTWARE, Ohio).

[2] = target: T2, V1 Receptor Subtype in Human Platelet (Homo sapiens, UniProt P37288); assay: Binding to Vasopressin V1 receptor subtype in Human Platelet Membranes; conditions: for IC50: human platelet membranes; for inhibition at 1 µM: 1.5 h, human platelet
T2 construct: tissue Hudson Valley Blood Services, Westchester Medical Center, Valhalla, N.Y; host or cells: human platelets (frozen platelet rich plasma)
Procedure: Radioligand Binding Experiments with Human Platelet Membranes (a) Platelet Membrane Preparation: Frozen platelet rich plasma (PRP), (Platelet Source: Hudson Valley Blood Services, Westchester Medical Center, Valhalla, N.Y.) are thawed to room temperature. The tubes containing the PRP are centrifuged at 16,000×g for 10 min. at 4° C. and the supernatant fluid discarded. […] The suspension is recentrifuged at 16,000× g for 10 min. This washing step is repeated one more time. The wash discarded and the lysed pellets homogenized in low ionic strength buffer of Tris.HCl, 5.0 mM, pH 7.5 containing 5.0 mM EDTA. The homogenate is centrifuged at 39,000× g for 10 min. The resulting pellet is resuspended in Tris. […] The final pellet is resuspended in 50.0 mM Tris. HCl buffer pH 7.4 containing 120 mM NaCl and 5.0 mM KCl to give 1.0-2.0 mg protein per ml of suspension. […] Platelet Membranes […] Then add 20 μl of [^3 H]Ligand (Manning or […] Vasopressin), to give final concentrations ranging from 0.01 to 10.0 nM. Initiate the binding by adding 80.0 μl of platelet suspension (approx. 100 μg protein). Mix all reagents by pipetting the mixture up and down a few times. Non specific binding is measured in the presence of 1.0 μM of unlabeled ligand (Manning or […] Vasopressin). Let the mixture stand undisturbed at room temperature for ninety (90) min. Upon this time, rapidly filter off the incubate under vacuum suction over GF/B filters, using a Brandel Harvester. Determine the radioactivity caught on the filter disks by the addition of liquid scintillant and counting in a liquid scintillator.

Rat Hepatic V1 Receptors = target: T3, Rat Hepatic V1 Receptors (Rattus norvegicus, UniProt P30560); assay: Binding Assay to Rat Hepatic V1 Receptors
T3 construct: Rat liver plasma membranes expressing the vasopressin V1 receptor subtypes; from tissue; host or cells: rat liver plasma membranes

[3] = LV-2 cell membranes, human V2, read-out: V2 IC50 (**)

T2 sequence (P37288 whole entry): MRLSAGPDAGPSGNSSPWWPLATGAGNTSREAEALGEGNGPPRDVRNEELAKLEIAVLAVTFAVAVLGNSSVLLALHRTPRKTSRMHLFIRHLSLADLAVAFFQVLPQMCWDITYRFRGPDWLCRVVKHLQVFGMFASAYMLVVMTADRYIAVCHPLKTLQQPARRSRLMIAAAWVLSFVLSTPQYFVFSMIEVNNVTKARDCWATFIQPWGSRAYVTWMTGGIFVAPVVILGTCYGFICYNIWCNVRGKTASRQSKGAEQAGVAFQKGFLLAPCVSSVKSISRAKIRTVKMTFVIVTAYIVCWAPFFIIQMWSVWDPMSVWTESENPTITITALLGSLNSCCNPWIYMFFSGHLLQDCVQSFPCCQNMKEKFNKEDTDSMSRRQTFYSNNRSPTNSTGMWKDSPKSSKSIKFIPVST
T1 sequence (P30518 whole entry): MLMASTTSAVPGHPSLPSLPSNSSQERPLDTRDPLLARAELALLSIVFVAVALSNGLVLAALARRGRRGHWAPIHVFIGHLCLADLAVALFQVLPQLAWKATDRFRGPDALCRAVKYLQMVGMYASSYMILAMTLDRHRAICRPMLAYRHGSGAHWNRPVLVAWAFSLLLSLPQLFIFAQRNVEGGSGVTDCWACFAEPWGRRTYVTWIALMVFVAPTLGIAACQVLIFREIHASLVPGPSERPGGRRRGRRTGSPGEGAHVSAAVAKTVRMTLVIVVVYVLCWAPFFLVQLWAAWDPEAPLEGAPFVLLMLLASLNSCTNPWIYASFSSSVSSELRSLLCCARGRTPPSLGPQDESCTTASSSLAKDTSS
T3 sequence (P30560 whole entry): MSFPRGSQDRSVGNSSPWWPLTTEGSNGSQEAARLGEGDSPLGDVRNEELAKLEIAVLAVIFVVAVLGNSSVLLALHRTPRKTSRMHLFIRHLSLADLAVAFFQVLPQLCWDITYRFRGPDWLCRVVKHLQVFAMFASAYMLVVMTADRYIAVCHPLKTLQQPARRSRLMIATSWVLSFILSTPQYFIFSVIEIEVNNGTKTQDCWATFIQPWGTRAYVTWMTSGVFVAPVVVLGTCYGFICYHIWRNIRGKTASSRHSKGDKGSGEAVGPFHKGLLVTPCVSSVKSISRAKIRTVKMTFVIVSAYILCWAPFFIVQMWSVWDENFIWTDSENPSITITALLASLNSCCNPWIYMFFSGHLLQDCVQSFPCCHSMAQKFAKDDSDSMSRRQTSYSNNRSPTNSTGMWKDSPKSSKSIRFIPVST

SMILES	IC50 [1, 3]	IC50 [2]	other results
Cc1c(F)cccc1C(=O)Nc1ccc(C(=O)N2CCc3cccn3-c3ccccc32)c(Cl)c1 [Example 611, N-[4-[(6,7-Dihydro-5H-pyrrolo[1,2-a]-[1,5]benzodiazepin-5-yl)carbonyl]-3-chlorophenyl]-3-fluoro-2-methyl-benzamide]	4 nM	500 nM	
Cc1ccc(F)cc1C(=O)Nc1ccc(C(=O)N2CCc3cccn3-c3ccccc32)c(Cl)c1 [Example 612, N-[4-[(6,7-Dihydro-5H-pyrrolo[1,2-a]-[1,5]benzodiazepin-5-yl)carbonyl]-3-chlorophenyl]-5-fluoro-2-methyl-benzamide]	10 nM	1700 nM	
Cc1ccccc1C(=O)Nc1ccc(C(=O)N2Cc3ccc(CN(C)C)n3Cc3ccccc32)c(Cl)c1 [Example 669, N-[4-[[3-[(dimethylamino)methyl]-5H-pyrrolo[2,1-c][1,4]benzodiazepin-10(11H)-yl]carbonyl]-3-chlorophenyl]-2-methylbenzamide]	35 nM	71 nM	
O=Cc1cccn1CC(=O)Nc1ccc(C(=O)N2Cc3cccn3Cc3ccccc32)cc1 [Example 685, N-[4-(5H-Pyrrolo[2,1-c][1,4]benzodiazepin-10(11H)-ylcarbonyl)phenyl]-2-(2-formyl-1-pyrrolo)acetamide]	61 nM	61 nM	
CC(=O)Oc1ccccc1C(=O)Nc1ccc(C(=O)N2Cc3cccn3Cc3ccccc32)cc1 [Example 688, N-[4-(5H-pyrrolo[2,1-c][1,4]benzodiazepin-10(11H)-ylcarbonyl)phenyl]-2-(acetoxy)benzamide]	34 nM	69 nM	
O=C(Nc1ccc(C(=O)N2Cc3cccn3Cc3ccccc32)cc1)c1ccccc1O [Example 689, N-[4-(5H-pyrrolo[2,1-c][1,4]benzodiazepin-10(11H-)-ylcarbonyl)phenyl]-2-hydroxybenzamide]	540 nM	85 nM	
O=C(Nc1ccc(C(=O)N2Cc3cccn3Cc3ccccc32)cc1)c1cccc2ccccc12 [Example 690, N-[4-(5H-pyrrolo[2,1-c][1,4]benzodiazepin-10(11H)-ylcarbonyl)phenyl]-1-naphthylcarboxamide]	22 nM	220 nM	
Cc1ccccc1C(=O)Nc1ccc(C(=O)N2Cc3cccn3Cc3ccccc32)c(C)c1 [Example 691, N-[4-(5H-pyrrolo[2,1-c][1,4]benzodiazepin-10(11H)-ylcarbonyl)-3-methylphenyl]-2-methylbenzamide]	2.9 nM	72 nM	
O=C(Nc1ccc(C(=O)N2Cc3cccn3Cc3ccccc32)cc1)c1ccc(F)cc1Cl [Example 692, N-[4-(5H-pyrrolo[2,1-c][1,4]benzodiazepin-10(11H)-ylcarbonyl)phenyl]-2-chloro-4-fluorobenzamide]	4 nM	7 nM	
O=C(Nc1ccc(C(=O)N2Cc3cccn3Cc3ccccc32)cc1)c1ccc(F)cc1C(F)(F)F [Example 693, N-[4-(5H-pyrrolo[2,1-c][1,4]benzodiazepin-10(11H)-ylcarbonyl)phenyl]-2-(trifluoromethyl)-4-fluorobenzamide]	5 nM	21 nM	
Cc1ccc(F)cc1C(=O)Nc1ccc(C(=O)N2Cc3cccn3Cc3ccccc32)c(C)c1 [Example 694, N-[4-(5H-pyrrolo[2,1-c][1,4]benzodiazepin-10(11H)-ylcarbonyl)-3-methylphenyl]-5-fluoro-2-methylbenzamide]			IC50 [1]: 1.7 nM; IC50 (Rat Hepatic V1 Receptors): 120 nM
COc1cc(NC(=O)c2cc(F)ccc2C)ccc1C(=O)N1Cc2cccn2Cc2ccccc21 [Example 695]	1.8 nM	15 nM	
O=C(Nc1ccc(C(=O)N2Cc3cccn3Cc3ccccc32)c(Cl)c1)c1ccc(C(F)(F)F)cc1F [Example 696, N-[4-(5H-pyrrolo[2,1-c][1,4]benzodiazepin-10(11H)-ylcarbonyl)-3-chloro-phenyl]-2-fluoro-4-(trifluoromethyl)benzamide]	65 nM	12400 nM	
CSc1ccc(Cl)c(C(=O)Nc2ccc(C(=O)N3Cc4cccn4Cc4ccccc43)c(Cl)c2)c1 [Example 700, N-[4-(5H-pyrrolo[2,1-c][1,4]benzodiazepin-10(11H)-ylcarbonyl)-3-chloro-phenyl]-2-chloro-5-(methylthio)benzamide]			inhibition at 10 µM ([1]; 10 μM, human V2): 100%; inhibition at 1 µM [2]: 77%
COc1ccc(C(=O)Nc2ccc(C(=O)N3Cc4cccn4Cc4ccccc43)c(Cl)c2)c(Cl)c1OC [Example 702, N-[4-(5H-pyrrolo[2,1-c][1,4]benzodiazepin-10(11H)-ylcarbonyl)-3-chloro-phenyl]-2-chloro-3,4-dimethoxybenzamide]			inhibition at 1 µM ([1]; human V2): 85%; inhibition at 1 µM [2]: 9%
COc1cc(NC(=O)c2ccccc2C)c(Cl)cc1C(=O)N1Cc2cccn2Cc2ccccc21 [Example 703, N-[4-(5H-pyrrolo[2,1-c][1,4]benzodiazepin-10(11H)-ylcarbonyl)-6-chloro-3-methoxyphenyl]-2-methylbenzamide]			inhibition at 1 µM ([1]; human V2): 87%; inhibition at 1 µM [2]: 35%
COc1cc(C(=O)N2Cc3cccn3Cc3ccccc32)ccc1NC(=O)c1cc(C)ccc1C [Example 704, N-[4-(5H-pyrrolo[2,1-c][1,4]benzodiazepin-10(11H)-ylcarbonyl)-2-methoxyphenyl]-2,5-dimethylbenzamide]			inhibition at 1 µM ([1]; human V2): 92%; inhibition at 1 µM [2]: 100%

More lines, main results first:

IC50 [1, 3]	IC50 [2]	SMILES	other results
3 nM	620 nM	Cc1ccccc1CC(=O)Nc1ccc(C(=O)N2Cc3cccn3Cc3ccccc32)c(Cl)c1 [Example 697, N-[4-(5H-pyrrolo[2,1-c][1,4]benzodiazepin-10(11H)-ylcarbonyl)-3-chloro-phenyl]-2-methylbenzeneacetamide]	
13 nM	1300 nM	O=C(Nc1ccc(C(=O)N2Cc3cccn3Cc3ccccc32)c(Cl)c1)c1c(F)cccc1C(F)(F)F [Example 698, N-[4-(5H-pyrrolo[2,1-c][1,4]benzodiazepin-10(11H)-ylcarbonyl)-3-chloro-phenyl]-2-fluoro-6-(trifluoromethyl)benzamide]	
6 nM	200 nM	O=C(Nc1ccc(C(=O)N2Cc3cccn3Cc3ccccc32)c(Cl)c1)c1ccc(F)cc1C(F)(F)F [Example 707, N-[4-(5H-pyrrolo[2,1-c][1,4]benzodiazepin-10(11H)-ylcarbonyl)-3-chlorophenyl]-2-(trifluoromethyl)-4-fluorobenzamide]	
41 nM	23 nM	CC(C)COC(=O)Nc1ccc(C(=O)N2Cc3cccn3Cc3ccccc32)cc1 [Example 714]	
73 nM	7.8 nM	CCCCC(=O)Nc1ccc(C(=O)N2Cc3cccn3Cc3ccccc32)cc1 [Example 715]	
31 nM	2 nM	COc1cc(C(=O)N2Cc3cccn3Cc3ccccc32)ccc1NC(=O)CC(C)C [Example 716]	
